The source made the active and inactive calls. The calls are words filed in the database; no cut-off is given here. Where a SMILES comes first, the peptide text is derived from it. Bridges are numbered along the chain shown (N, C = ends). [ ]: non-standard residue; d: D form. His(π-(CH2)8Ph) = N[C@@H](Cc1cncn1CCCCCCCCc1ccccc1)C(=O)O; pT = C[C@@H](OP(=O)(O)O)[C@H](N)C(=O)O; Ahx = NCCCCCC(=O)O
Key:
HeLa [1] = assay: Cytotoxicity against human HeLa cells incubated for 24 hrs by MTT assay; type: functional, cell-based
NCI-H1975 [2] = assay: Cytotoxicity against human NCI-H1975 cells incubated for 24 hrs by MTT assay; type: functional, cell-based; settings: NCI-H1975, 24 h
[3] = target: E3 ubiquitin-protein ligase UBR1 (Homo sapiens) (UniProt Q8IWV7); assay: Binding affinity to UBR1 (unknown origin) expressed in HEK293T cells incubated for 3 hrs by pull-down assay; type: cell-based
[4] = target: Serine/threonine-protein kinase PLK1 (Homo sapiens, UniProt P53350); assay: Binding affinity to PLK1 PBD (unknown origin) by ITC method
PC-9 [5] = assay: Cytotoxicity against human PC-9 cells assessed as change in morphology at 25 uM incubated for 24 hrs by phase contrast microscopic assay; type: functional, cell-based
NCI-H1975 [6] = assay: Cytotoxicity against human NCI-H1975 cells assessed as change in morphology at 25 uM incubated for 24 hrs by phase contrast microscopic assay; type: functional, cell-based
HeLa [7] = assay: Induction of cell cycle arrest in human HeLa cells assessed as G2/M phase arrest at 10 uM incubated for 24 hrs by PI staining based flow cytometry analysis; type: functional
NCI-H1975 [8] = assay: Induction of cell cycle arrest in human NCI-H1975 cells assessed as G2/M phase arrest at 10 uM incubated for 24 hrs by PI staining based flow cytometry analysis; type: functional
HeLa [9] = assay: Induction of cell cycle arrest in human HeLa cells assessed as delay in S phase progression at 10 uM incubated for 24 hrs by PI staining based flow cytometry analysis; type: functional
A549 [10] = assay: Induction of cell cycle arrest in human A549 cells assessed as delay in S phase progression at 10 uM incubated for 24 hrs by PI staining based flow cytometry analysis; type: functional
PC-9 [11] = assay: Induction of cell cycle arrest in human PC-9 cells assessed as delay in S phase progression at 10 uM incubated for 24 hrs by PI staining based flow cytometry analysis; type: functional
NCI-H1975 [12] = assay: Induction of cell cycle arrest in human NCI-H1975 cells assessed as fold increase in S phase population at 10 uM incubated for 24 hrs by PI staining based flow cytometry analysis; type: functional
A549 [13] = assay: Induction of apoptosis in human A549 cells at 25 uM incubated for 24 hrs by fluorescence microscopic analysis; type: functional, cell-based
[14] = Drug uptake in human HeLa cells nucleus at 10 uM incubated for 24 hrs by PI staining based inverted confocal laser scanning fluorescence microscopic anlaysis; type: ADME, subcellular
HeLa [15] = assay: Antitumor activity against human HeLa cells xenografted in iv dosed nude mouse assessed as reduction in tumor size; type: functional, organism-based; settings: dose 10.0 mg/kg
[16] = Toxicity in nude mouse xenografted with human NCI-H1975 cells assessed as change in body weight at 10 mg/kg, iv administered for every 3 days; type: organism-based; settings: in vivo, 72 h
[17] = Protac activity at UBR/PLK1 in human PC-9 cells assessed as PLK1 degradation incubated for 24 hrs by immunoblotting analysis
UBR/PLK1 (Homo sapiens) [18] = assay: as above; settings: dose 5-25 µM
UBR/PLK1 (Homo sapiens) [19] = assay: Protac activity at UBR/PLK1 in human NCI-H1975 cells assessed as PLK1 degradation at 30 uM incubated for 24 hrs by immunoblotting analysis
UBR/PLK1 (Homo sapiens) [20] = assay: Protac activity at UBR/PLK1 in human PC-9 cells assessed as PLK1 degradation at 10 uM incubated for 2 to 24 hrs by immunoblotting analysis; settings: time 2-24 hrs
UBR/PLK1 (Homo sapiens) [21] = assay: Protac activity at UBR/PLK1 in human A549 cells assessed as PLK1 degradation at 25 uM incubated for 2 to 24 hrs by immunoblotting analysis; settings: time 2-24 hrs
UBR/PLK1 (Homo sapiens) [22] = assay: Protac activity at UBR/PLK1 in human NCI-H1975 cells assessed as PLK1 degradation at 10 uM incubated for 2 to 24 hrs by immunoblotting analysis; settings: time 2-24 hrs
UBR/PLK1 (Homo sapiens) [23] = assay: Protac activity at UBR/PLK1 in human A549 cells assessed as PLK1 degradation at 5 to 30 uM preincubated for 24 hrs followed by MG132 addition for 8 hrs by immunoblotting analysis; settings: dose 5-30 µM, time 32.0 hrs
UBR/PLK1 (Homo sapiens) [24] = assay: Protac activity at UBR/PLK1 in human PC-9 cells assessed as PLK1 degradation at 5 to 30 uM preincubated for 24 hrs followed by MG132 addition for 8 hrs by immunoblotting analysis; settings: dose 5-30 µM, time 32.0 hrs
UBR/PLK1 (Homo sapiens) [25] = assay: Protac activity at UBR/PLK1 in human HeLa cells assessed as PLK1 degradation at 0.3 to 3 uM preincubated for 24 hrs followed by MG132 addition for 8 hrs by immunoblotting analysis; settings: dose 0.3-3 µM

E3 ubiquitin-protein ligase UBR1 (Homo sapiens), sequence (Q8IWV7 whole entry): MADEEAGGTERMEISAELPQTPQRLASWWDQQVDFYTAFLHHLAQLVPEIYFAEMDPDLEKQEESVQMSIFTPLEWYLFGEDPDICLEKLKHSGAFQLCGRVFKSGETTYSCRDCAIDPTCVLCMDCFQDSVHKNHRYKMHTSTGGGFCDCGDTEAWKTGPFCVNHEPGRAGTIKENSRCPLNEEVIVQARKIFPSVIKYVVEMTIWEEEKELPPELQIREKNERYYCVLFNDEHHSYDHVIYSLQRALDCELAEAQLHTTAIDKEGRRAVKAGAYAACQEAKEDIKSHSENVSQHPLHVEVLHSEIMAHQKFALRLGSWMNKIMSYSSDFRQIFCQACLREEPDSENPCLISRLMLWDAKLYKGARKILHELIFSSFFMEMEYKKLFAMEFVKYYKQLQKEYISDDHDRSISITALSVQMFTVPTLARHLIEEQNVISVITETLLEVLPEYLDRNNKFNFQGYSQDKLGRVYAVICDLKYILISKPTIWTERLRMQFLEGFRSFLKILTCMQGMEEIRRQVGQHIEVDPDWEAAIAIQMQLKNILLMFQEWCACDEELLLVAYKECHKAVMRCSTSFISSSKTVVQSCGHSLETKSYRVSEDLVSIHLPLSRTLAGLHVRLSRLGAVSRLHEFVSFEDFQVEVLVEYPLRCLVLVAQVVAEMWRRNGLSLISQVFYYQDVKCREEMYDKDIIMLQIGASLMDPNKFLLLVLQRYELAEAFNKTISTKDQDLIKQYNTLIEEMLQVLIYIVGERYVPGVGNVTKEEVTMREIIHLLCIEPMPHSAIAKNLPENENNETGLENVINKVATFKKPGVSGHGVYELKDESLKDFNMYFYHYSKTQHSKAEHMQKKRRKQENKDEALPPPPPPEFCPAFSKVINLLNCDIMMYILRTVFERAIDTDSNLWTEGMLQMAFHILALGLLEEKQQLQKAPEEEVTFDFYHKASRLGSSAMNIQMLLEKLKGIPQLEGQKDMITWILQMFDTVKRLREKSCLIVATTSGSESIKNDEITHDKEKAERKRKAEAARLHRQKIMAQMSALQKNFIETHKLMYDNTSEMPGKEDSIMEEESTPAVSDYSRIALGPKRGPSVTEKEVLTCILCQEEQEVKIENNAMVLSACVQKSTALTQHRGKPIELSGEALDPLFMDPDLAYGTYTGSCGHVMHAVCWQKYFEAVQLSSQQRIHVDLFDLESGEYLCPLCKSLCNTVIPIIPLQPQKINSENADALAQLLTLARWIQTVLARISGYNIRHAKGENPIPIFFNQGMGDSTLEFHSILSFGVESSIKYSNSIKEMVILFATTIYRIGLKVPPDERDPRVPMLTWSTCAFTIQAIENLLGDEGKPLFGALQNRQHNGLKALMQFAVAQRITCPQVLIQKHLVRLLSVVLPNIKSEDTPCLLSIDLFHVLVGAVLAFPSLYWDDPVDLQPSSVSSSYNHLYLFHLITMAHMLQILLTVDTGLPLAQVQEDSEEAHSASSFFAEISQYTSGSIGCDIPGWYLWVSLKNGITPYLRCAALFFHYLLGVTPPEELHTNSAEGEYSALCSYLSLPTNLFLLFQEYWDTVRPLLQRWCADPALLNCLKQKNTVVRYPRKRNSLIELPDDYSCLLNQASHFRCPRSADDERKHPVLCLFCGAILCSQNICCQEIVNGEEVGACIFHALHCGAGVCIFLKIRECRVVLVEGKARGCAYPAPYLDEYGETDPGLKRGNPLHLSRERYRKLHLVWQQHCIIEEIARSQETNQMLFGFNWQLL
Serine/threonine-protein kinase PLK1, sequence (P53350 whole entry): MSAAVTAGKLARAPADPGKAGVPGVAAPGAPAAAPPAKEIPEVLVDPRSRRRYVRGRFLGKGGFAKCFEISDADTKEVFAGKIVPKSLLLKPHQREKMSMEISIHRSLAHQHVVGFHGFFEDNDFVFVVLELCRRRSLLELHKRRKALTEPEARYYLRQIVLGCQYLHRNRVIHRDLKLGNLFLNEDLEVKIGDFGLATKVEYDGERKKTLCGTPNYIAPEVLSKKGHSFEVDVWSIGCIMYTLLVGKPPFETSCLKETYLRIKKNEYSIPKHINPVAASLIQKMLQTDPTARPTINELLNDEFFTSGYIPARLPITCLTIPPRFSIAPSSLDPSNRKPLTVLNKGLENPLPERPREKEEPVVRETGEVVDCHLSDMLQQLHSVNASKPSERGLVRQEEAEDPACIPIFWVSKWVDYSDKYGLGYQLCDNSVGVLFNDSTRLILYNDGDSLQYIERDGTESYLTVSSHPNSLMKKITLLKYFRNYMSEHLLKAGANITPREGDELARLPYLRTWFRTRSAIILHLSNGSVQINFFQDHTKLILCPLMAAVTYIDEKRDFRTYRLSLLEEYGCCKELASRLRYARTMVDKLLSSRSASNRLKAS

For `C[C@@H](OP(=O)(O)O)[C@@H]1NC(=O)[C@H](Cc2cncn2CCCCCCCCc2ccccc2)NC(=O)[C@@H](NC(=O)CCCCCNC(=O)[C@H](CCCNC(=N)N)NC(=O)[C@H](CCCNC(=N)N)NC(=O)[C@H](CCCNC(=N)N)NC(=O)[C@H](CCCNC(=N)N)NC(=O)[C@H](CCCNC(=N)N)NC(=O)[C@H](CCCNC(=N)N)NC(=O)[C@H](CCCNC(=N)N)NC(=O)[C@H](CCCNC(=N)N)NC(=O)[C@H](CCCNC(=N)N)NC(=O)[C@H](CCCNC(=N)N)NC(=O)[C@H](CCCNC(=N)N)NC(=O)[C@@H](N)CCCNC(=N)N)CCC(=O)NCCCC[C@@H](C(N)=O)NC1=O` (H-RRRRRRRRRRRR[Ahx]E[His(π-(CH2)8Ph)][pT]K-NH2; lactam 14-17), the IC50 (HeLa [1]) was 18 µM, the IC50 (NCI-H1975 [2]) was 24.4 µM and the Activity [3] was “Active”. For the same molecule, the Kd [4] was 3.48 µM, the Activity (PC-9 [5]) was “Active” and the Activity (NCI-H1975 [6]) was “Active”. For the same molecule, the Activity (HeLa [7]) was 21%, the Activity (NCI-H1975 [8]) was 11% and the Activity (HeLa [9]) was “Active”. The Activity (A549 [10]) was “Active”, the Activity (PC-9 [11]) was “Active” and the Activity (NCI-H1975 [12]) was “Active”. The Activity (A549 [13]) was “Active”, the Drug uptake [14] was “Active” and the Activity (HeLa [15]) was “Dose-Dependent Effect”. The Activity [16] was “Non-Toxic”, the DC50 [17] was 12 µM and the Activity (UBR/PLK1 (Homo sapiens) [18]) was “Dose-Dependent Effect”. For the same molecule, the Emax (UBR/PLK1 (Homo sapiens) [19]) was 95%, the Activity (UBR/PLK1 (Homo sapiens) [20]) was “Active” and the Activity (UBR/PLK1 (Homo sapiens) [21]) was “Active”. For the same molecule, the Activity (UBR/PLK1 (Homo sapiens) [22]) was “Active”, the Activity (UBR/PLK1 (Homo sapiens) [23]) was “inactive” and the Activity (UBR/PLK1 (Homo sapiens) [24]) was “inactive”. The Activity (UBR/PLK1 (Homo sapiens) [25]) was “inactive”.
